Experimental data published in patent US20240090503A1, “FUNGICIDAL OXADIAZOLES AND THEIR MIXTURES” (FMC CORPORATION, priority 2020, published 2024).
Like-named read-outs stand apart in the source and are kept apart here. Marks after values point to notes of the source that are not given here.

Columns and labels:
Format in all cases: in vivo
[1] = test system: Phakopsora pachyrhizi (the causal agent of Asian soybean rust); assay: Test A: preventive spray on soybean seedlings, Asian soybean rust, visual disease rating; settings: for pest or weed control at 10 µg/mL: read-out: Test A disease control rating
Summary of the method: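 Preventive test: soybean seedlings received a run-off spray of compound suspended at the set ppm in 50/50 acetone/water plus 250 ppm PEG400, and one day later a P. pachyrhizi spore inoculum. Visual scoring (0 none to 100 full disease control) followed 24 h saturated incubation and 8 days' growth chamber, both at 22° C.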

[2] = test system: Zymoseptoria tritici (the causal agent of wheat leaf blotch); assay: Test B: preventive spray on wheat seedlings, wheat leaf blotch, visual disease rating; settings: for pest or weed control at 100 µg/mL: read-out: Test B disease control rating
Excerpt: General protocol for preparing test suspensions for Tests A-D: the test compounds were first dissolved in acetone in an amount equal to 3% of the final volume and then suspended at the desired concentration (in ppm) in acetone and purified water (50/50 mix by volume) containing 250 ppm of the surfactant PEG400 (polyhydric alcohol esters). The resulting test suspensions were then used in Tests A-D.
The test suspension was sprayed to the point of run-off on wheat seedlings. The following day the seedlings were inoculated with a spore suspension of Zymoseptoria tritici (the causal agent of wheat leaf blotch) and incubated in a saturated atmosphere at 24° C. for 48 h, and then moved to a growth chamber at 20° C. for 17 days, after which time visual disease ratings were made.
The test results for Tests A-C presented in Table A below for compounds of Formula 1 illustrate the fungicidal activity of component (a) contributing to the plant disease control utility of compositions comprising component (a) in combination with component (b) according to the present invention. In the Table, a rating of 100 indicates 100% disease control and a rating of 0 indicates no disease control (relative to the controls). A dash (-) indicates the compound was not tested. The test suspensions were sprayed at the concentration listed in the column “Rate in ppm”, unless otherwise indicated. An asterisk “*” next to the rating indicates a 250 ppm test suspension was used, a double asterisk “**” next to the rating indicates a 100 ppm test suspension was used, and a triple asterisk “***” next to the rating indicates a 50 ppm test suspension was used.

[3] = test system: Puccinia recondita f. sp. tritici (the causal agent of wheat leaf rust); assay: Test C: preventive spray on wheat seedlings, wheat leaf rust, visual disease rating; settings: for pest or weed control at 10 µg/mL: read-out: Test C disease control rating
Summary of the method: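 Wheat seedlings sprayed to run-off with compound in acetone/water (50/50) with 250 ppm PEG400, then inoculated with spores the following day. After 24 h saturated humidity at 20° C. and 6 days in growth chamber at 20° C., disease rated visually as % control relative to untreated controls.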

[4] = test suspension 250 ppm, wheat seedlings
[5] = Phakopsora pachyrhizi, 216 h, test suspension 10 ppm, soybean seedlings, 100 = 100% disease control, 0 = no control
[6] = Zymoseptoria tritici, 456 h, test suspension 100 ppm (** next to rating), wheat seedlings
[7] = Puccinia recondita, 168 h, test suspension 10 ppm, wheat seedlings
[8] = Phakopsora pachyrhizi, 216 h, test suspension 250 ppm, soybean seedlings
[9] = Zymoseptoria tritici, 456 h, test suspension 250 ppm, wheat seedlings
[10] = Puccinia recondita, 168 h, test suspension 250 ppm, wheat seedlings
[11] = test suspension 10 ppm, soybean seedlings, 100 = 100% disease control, 0 = no control
[12] = test suspension 10 ppm, wheat seedlings
[13] = Phakopsora pachyrhizi, 216 h, 10 ppm test suspension, soybean seedlings, 100 = 100% disease control, 0 = no control
[14] = Zymoseptoria tritici, 456 h, 250 ppm test suspension, wheat seedlings, 100 = 100% disease control
[15] = Puccinia recondita, 168 h, 10 ppm test suspension, wheat seedlings, 100 = 100% disease control, 0 = no control
[16] = 10 ppm test suspension, soybean seedlings, 100 = 100% disease control, 0 = no control
[17] = 250 ppm test suspension, wheat seedlings, 100 = 100% disease control
[18] = 10 ppm test suspension, wheat seedlings, 100 = 100% disease control, 0 = no control

Structure (SMILES): ON=Cc1cnn(Cc2ccc(-c3noc(C(F)(F)F)n3)cc2)c1 (mixture of isomers) [compound 20]
- Test A disease control rating ([1]; test suspension 250 ppm, soybean seedlings): 100%
- Test B disease control rating [2, 4]: 99%
- Test C disease control rating [3, 4]: 100%

Structure (SMILES): CCOC(=O)c1cnn(C(C)c2ccc(-c3noc(C(F)(F)F)n3)cc2)c1 (stereo not drawn) [Compound 2, ethyl 1-[1-[4-[5-(trifluoromethyl)-1,2,4-oxadiazol-3-yl]phenyl]ethyl]-1H-pyrazole-4-carboxylate]
- pest or weed control at 10 µg/mL [1, 5]: 100%
- pest or weed control at 100 µg/mL [2, 6]: 98%
- pest or weed control at 10 µg/mL [3, 7]: 99%

Structure (SMILES): CN(C)C(=O)C1=NOC(Cc2ccc(-c3noc(C(F)(F)F)n3)cc2)C1 (stereo not drawn) [Compound 12, 4,5-dihydro-N,N-dimethyl-5-[[4-[5-(trifluoromethyl)-1,2,4-oxadiazol-3-yl]phenyl]methyl]-3-isoxazolecarboxamide]
- pest or weed control at 255 µg/mL ([1]; Phakopsora pachyrhizi, 216 h, test suspension 255 ppm, soybean seedlings): 100%
- pest or weed control at 255 µg/mL ([2]; Zymoseptoria tritici, 456 h, test suspension 255 ppm, wheat seedlings): 98%
- pest or weed control at 255 µg/mL ([3]; Puccinia recondita, 168 h, test suspension 255 ppm, wheat seedlings): 100%

Structure (SMILES): N#CC(Nc1ccccc1)c1ccc(-c2noc(C(F)(F)F)n2)cc1 (stereo not drawn) [Compound 13, α-(phenylamino)-4-[5-(trifluoromethyl)-1,2,4-oxadiazol-3-yl]benzeneacetonitrile]
- pest or weed control at 250 µg/mL [1, 8]: 100%
- pest or weed control at 250 µg/mL [2, 9]: 85%
- pest or weed control at 250 µg/mL [3, 10]: 100%

Structure (SMILES): COC(=O)c1cnn(Cc2ccc(-c3noc(C(F)(F)F)n3)cc2)c1 [Compound 21, methyl 1-[[4-[5-(trifluoromethyl)-1,2,4-oxadiazol-3-yl]phenyl]methyl]-1H-pyrazole-4-carboxylate]
- pest or weed control at 10 µg/mL ([1]; Phakopsora pachyrhizi, 216 h): 100%
- pest or weed control at 100 µg/mL ([2]; Zymoseptoria tritici, 456 h): 97%
- pest or weed control at 10 µg/mL ([3]; Puccinia recondita, 168 h): 100%

Structure (SMILES): N#CCOC(=O)c1cnn(Cc2ccc(-c3noc(C(F)(F)F)n3)cc2)c1 [Compound 57, cyanomethyl 1-[[4-[5-(trifluoromethyl)-1,2,4-oxadiazol-3-yl]phenyl]methyl]-1H-pyrazole-4-carboxylate]
- pest or weed control at 10 µg/mL [1, 5]: 100%
- pest or weed control at 100 µg/mL [2, 6]: 99%
- pest or weed control at 10 µg/mL [3, 7]: 100%

Structure (SMILES): FC(F)(F)c1nc(-c2ccc(Cn3cc(Br)cn3)s2)no1 [Compound 71, 3-[5-[(4-bromo-1H-pyrazol-1-yl)methyl]-2-thienyl]-5-(trifluoromethyl)-1,2,4-oxadiazole]
- pest or weed control at 250 µg/mL [1, 8]: 100%
- pest or weed control at 250 µg/mL [2, 9]: 36%
- pest or weed control at 250 µg/mL [3, 10]: 100%

Structure (SMILES): CCOC(=O)c1cnn(Cc2ccc(-c3noc(C(F)(F)F)n3)cc2)c1 [Compound 83, ethyl 1-[[4-[5-(trifluoromethyl)-1,2,4-oxadiazol-3-yl]phenyl]methyl]-1H-pyrazole-4-carboxylate]
- pest or weed control at 250 µg/mL [1, 8]: 100%
- pest or weed control at 250 µg/mL [2, 9]: 79%
- pest or weed control at 250 µg/mL [3, 10]: 100%

Structure (SMILES): FC(F)(F)c1nc(-c2ccc(Cn3ccc(-c4ccccc4)n3)cc2)no1 [Compound 85]
- Test A disease control rating ([1]; test suspension 50 ppm, soybean seedlings): 100*** %
- Test B disease control rating [2, 4]: 9%
- Test C disease control rating [3, 4]: 100%

Structure (SMILES): O=C1c2ccccc2C(=O)N1Cc1ccc(-c2noc(C(F)(F)F)n2)cc1 [Compound 90, 2-[[4-[5-(trifluoromethyl)-1,2,4-oxadiazol-3-yl]phenyl]methyl]-1H-isoindole-1,3(2H)-dione]
- pest or weed control at 250 µg/mL [1, 8]: 100%
- pest or weed control at 250 µg/mL [2, 9]: 33%
- pest or weed control at 250 µg/mL [3, 10]: 99%

Structure (SMILES): N#Cc1cnn(Cc2ccc(-c3noc(C(F)(F)F)n3)cc2)c1 [Compound 95, 1-[[4-[5-(trifluoromethyl)-1,2,4-oxadiazol-3-yl]phenyl]methyl]-1H-pyrazole-4-carbonitrile]
- pest or weed control at 250 µg/mL [1, 8]: 100%
- pest or weed control at 250 µg/mL [2, 9]: 87%
- pest or weed control at 250 µg/mL [3, 10]: 100%

Structure (SMILES): O=c1cnc2ccccc2n1Cc1ccc(-c2noc(C(F)(F)F)n2)cc1 [Compound 158, 1-[[4-[5-(trifluoromethyl)-1,2,4-oxadiazol-3-yl]phenyl]methyl]-2(1H)-quinoxalinone]
- pest or weed control at 270 µg/mL ([1]; Phakopsora pachyrhizi, 216 h, test suspension 270 ppm, soybean seedlings): 100%
- pest or weed control at 270 µg/mL ([2]; Zymoseptoria tritici, 456 h, test suspension 270 ppm, wheat seedlings): 90%
- pest or weed control at 270 µg/mL ([3]; Puccinia recondita, 168 h, test suspension 270 ppm, wheat seedlings): 100%

Structure (SMILES): Cn1c(=O)n(Cc2ccc(-c3noc(C(F)(F)F)n3)cc2)c2ccccc21 [Compound 159, 1,3-dihydro-1-methyl-3-[[4-[5-(trifluoromethyl)-1,2,4-oxadiazol-3-yl]phenyl]methyl]-2H-benzimidazol-2-one]
- pest or weed control at 260 µg/mL ([1]; Phakopsora pachyrhizi, 216 h, test suspension 260 ppm, soybean seedlings): 100%
- pest or weed control at 260 µg/mL ([2]; Zymoseptoria tritici, 456 h, test suspension 260 ppm, wheat seedlings): 87%
- pest or weed control at 260 µg/mL ([3]; Puccinia recondita, 168 h, test suspension 260 ppm, wheat seedlings): 100%

Structure (SMILES): CCOC(=O)c1cnn(C(C)c2ccc(-c3noc(C(F)(F)F)n3)s2)c1 (stereo not drawn) [Compound 192]
- Test A disease control rating [1, 11]: 100%
- Test B disease control rating [2, 4]: 99* %
- Test C disease control rating [3, 12]: 100%

Structure (SMILES): CCCOC(=O)c1cnn(Cc2ccc(-c3noc(C(F)(F)F)n3)s2)c1 [Compound 198, propyl 1-[[5-[5-(trifluoromethyl)-1,2,4-oxadiazol-3-yl]-2-thienyl]methyl]-1H-pyrazole-4-carboxylate]
- pest or weed control at 10 µg/mL [1, 5]: 100%
- pest or weed control at 100 µg/mL [2, 6]: 94%
- pest or weed control at 10 µg/mL [3, 7]: 99%

Structure (SMILES): O=C(c1coc(Cc2ccc(-c3noc(C(F)(F)F)n3)cc2)n1)N1CCOCC1 [Compound 263]
- Test A disease control rating [1, 11]: 100%
- Test B disease control rating [2, 4]: 95* %
- Test C disease control rating [3, 12]: 94%

Structure (SMILES): COCCNC(=O)c1ccc(Cc2ccc(-c3noc(C(F)(F)F)n3)cc2)cc1 [Compound 282]
- Test A disease control rating [1, 11]: 100%
- Test B disease control rating [2, 4]: 94* %
- Test C disease control rating [3, 12]: 97%

Structure (SMILES): FC(F)(F)c1nc(-c2ccc(OCn3cncn3)cc2)no1 [Compound 337]
- Test A disease control rating [1, 11]: 99%
- Test B disease control rating [2, 4]: 78* %
- Test C disease control rating [3, 12]: 82%

Structure (SMILES): FC(F)(F)c1nc(-c2ccc(OCc3cccnc3)cc2)no1 [Compound 353]
- Test A disease control rating [1, 11]: 0%
- Test B disease control rating [2, 4]: 73* %
- Test C disease control rating [3, 12]: 0%

Structure (SMILES): O=C(NCCF)c1coc(Cc2ccc(-c3noc(C(F)(F)F)n3)cc2)n1 [Compound 400, N-(2-fluoroethyl)-2-[[4-[5-(trifluoromethyl)-1,2,4-oxadiazol-3-yl]phenyl]methyl]-4-oxazolecarboxamide]
- pest or weed control at 10 ppm [1, 13]: 100%
- pest or weed control at 250 ppm [2, 14]: 99%
- pest or weed control at 10 ppm [3, 15]: 100%

Structure (SMILES): O=C(NCCOC(F)(F)F)c1coc(Cc2ccc(-c3noc(C(F)(F)F)n3)cc2)n1 [Compound 401, N-[2-(trifluoromethoxy)ethyl]-2-[[4-[5-(trifluoromethyl)-1,2,4-oxadiazol-3-yl]phenyl]methyl]-4-oxazolecarboxamide]
- pest or weed control at 10 ppm [1, 13]: 100%
- pest or weed control at 250 ppm [2, 14]: 77%
- pest or weed control at 10 ppm [3, 15]: 99%

Structure (SMILES): O=C(c1coc(Cc2ccc(-c3noc(C(F)(F)F)n3)cc2)n1)N1CCC(F)(F)C1 [Compound 402, (3,3-difluoro-1-pyrrolidinyl)[2-[[4-[5-(trifluoromethyl)-1,2,4-oxadiazol-3-yl]phenyl]methyl]-4-oxazolyl]methanone]
- pest or weed control at 10 ppm [1, 13]: 100%
- pest or weed control at 250 ppm [2, 14]: 96%
- pest or weed control at 10 ppm [3, 15]: 90%

Structure (SMILES): COC(=O)c1coc(COc2ccc(-c3noc(C(F)(F)F)n3)cc2)n1 [Compound 403, methyl 2-[[4-[5-(trifluoromethyl)-1,2,4-oxadiazol-3-yl]¬phenoxy]¬methyl]oxazole-4-carboxylate]
- Test A disease control rating [1, 16]: 60%
- Test B disease control rating [2, 17]: 47* %
- Test C disease control rating [3, 18]: 0%

Structure (SMILES): CCOC(=O)c1cccc(Cc2ccc(-c3noc(C(F)(F)F)n3)cc2)c1 [Compound 454]
- Test A disease control rating [1, 16]: 100%
- Test B disease control rating [2, 17]: 47* %
- Test C disease control rating [3, 18]: 0%
